Experimental data reported in ChEMBL document CHEMBL5370593, “Discovery and In Vitro Characterization of SPL028: Deuterated N,N-Dimethyltryptamine” (ACS Med Chem Lett, 2023).

Columns and labels:
[1] = Metabolic stability in human hepatocytes assessed as intrinsic clearance measured per million cells incubated upto 60 mins by LC-MS/MS analysis; format: ADME, cell-based, Hepatocyte; conditions: read-out: CLH
[2] = Metabolic stability in human hepatocytes assessed as half life measured per million cells incubated upto 60 mins by LC-MS/MS analysis; format: ADME, cell-based, Hepatocyte
[3] = Ratio of drug concentration in human blood to plasma at 5 uM incubated for 30 mins by LC-MS/MS analysis; format: ADME, cell-free; conditions: whole blood
[4] = Plasma protein binding in human assessed as unbound fraction by rapid equilibrium dialysis analysis; format: ADME, cell-free

| SMILES | hepatocyte CLint [1] [µL/min/1e6 cells] | half-life [2] [h] | blood plasma ratio at 0.5 h, 5 µM [3] | fraction unbound [4] |
| --- | --- | --- | --- | --- |
| O=C(O)/C=C/C(=O)O.[2H]C([2H])([2H])N(C([2H])([2H])[2H])C([2H])([2H])Cc1c[nH]c2ccccc12 | 9.3 | 3.45 |  |  |
| CCN(CC)CCCC(C)Nc1ccnc2cc(Cl)ccc12 (configuration not stated) [CHLOROQUINE] |  |  | 4.93 |  |
| O=C(O)Cc1ccccc1Nc1c(Cl)cccc1Cl [DICLOFENAC] |  |  | 0.63 |  |
| CNS(=O)(=O)Cc1ccc2[nH]cc(CCN(C)C)c2c1 |  |  |  | 0.68 |
| O=C(O)/C=C/C(=O)O.[2H]C([2H])([2H])N(CCc1c[nH]c2ccccc12)C([2H])([2H])[2H] | 15.2 | 1.95 |  |  |
